Measurements as given in patent US9790351B2, “Fat-binding compositions” (Eastpond Laboratories Limited, priority 2010, dated 2017).
Where a name gives a salt, the structure may show the parent alone. Values belong to the compound of their own block, whether it stands above or below them.

How the values were obtained:
[1] = Phase-solubility study of binding constant (Higuchi et al.); details: in water, 1:1 complex
Excerpt: The resulting 1:1, molar ratio betanin/alpha-cyclodextrin inclusion complex was a red colored, free flowing powder containing 32% betanin by weight, as determined by visible spectrophotometry. […] N. Reilly, Wiley, New York, 1965. vol. 4. pp. 117-212, the complete disclosure of which is hereby incorporated by reference for all purposes. The binding constant of the complex was Kass=85-105 M^−1

[2] = Binding constants of flavorants, microcalorimetric method and GC flavorant retention
Excerpt: The tested compounds included those that are generally soluble or miscible in water. The complexes with the cyclodextrins were formed using methods corresponding to the two specifically described examples below involving apricot flavorant and banana flavorant.
Two types of methods were used to determine the apparent binding constants noted above. The “microcalorimetric” method was used as described in Lewis et al., “Thermodynamics of binding of guest molecules to alpha- and beta-cyclodextrins,” J. Chem. Soc. Perkin. Trans. 2, (15) pp. 2081-2085, 1973, the complete disclosure of which is hereby incorporated by reference for all purposes. Also, by measuring the flavorant retention in the inclusion complexes and the corresponding mechanical mixtures (identical composition except that linear dextrin is used in place of cyclodextrins) with gas chromatography, according to the method described by Reineccius et al., “Encapsulation of flavors using cyclodextrins: comparison of flavor retention in alpha, beta, and gamma types,” Journal of Food Science, 67(9), pp. 3271-3279 (2002), the complete disclosure of which is hereby incorporated by reference for all purposes.

[3] = Association constants by capillary electrophoresis; assay type: binding; details: for Association constant, α-Cyclodextrin / Association constant, β-Cyclodextrin / Association constant, γ-Cyclodextrin: aqueous system, mean of three parallel determinations
Experimental: The association or binding constants of several selected weak complex-forming guest molecules with alpha-, beta- and gamma-cyclodextrins were experimentally determined. Capillary electrophoresis was utilized to determine the complex binding constants of selected dietary supplements thiamine, niacin and L-arginine in aqueous systems. The following values were determined:
Similarly, capillary electrophoresis was utilized to determine the complex binding constants of selected flavorants ethyl acetate, isoamyl acetate, diacetyl, and N,N-dimethyl formamide with alpha-, beta- and gamma-cyclodextrins.

[4] = Apparent binding constant determined by chromatography; details: in water at 25° C.
Experimental: Also, the apparent binding constant of the alpha-cyclodextrin N-tert-butyl-hydroxylamine complex was determined by chromatography.

[5] = Laser light scattering particle size distribution of dissolved alpha-cyclodextrin (aggregation); assay type: physicochemical
Excerpt: These solutions were then subjected to laser light scattering to determine the distribution of particle sizes in each solution. […] Cyclodextrin molecules in a less aggregated form likely include more available binding sites for complex formation. This experiment thus provides evidence that is consistent with the conclusion that carbonation allows for the availability of more cyclodextrin binding sites for forming complexes with fats.

[6] = Fat binding by a mixture of alpha-, beta- and gamma-cyclodextrins in water (precipitated inclusion complex); details: 0.01M each cyclodextrin and palmitic acid, 4 hours, ambient temperature
Excerpt: This reaction mixture was stirred for four hours at ambient temperature. […] The precipitate was removed by centrifugation.

[7] = cited from earlier work
HepG2 cells = details: cited from earlier work

SMILES: O=C(O)C1=C/C(=C/C=[N+]2/c3cc(O)c(OC4OC(CO)[C@@H](O)C(O)C4O)cc3CC2C(=O)[O-])CC(C(=O)O)N1 (stereo in doubt) [betanin]
binding constant Kass [1]: 85 to 105 M⁻¹

SMILES: CCCCOC(C)=O [Butyl acetate]
Calculated Binding Constants, complex formed with alpha-cyclodextrin [2]: 72 M⁻¹ | Calculated Binding Constants, complex formed with beta-cyclodextrin [2]: 85 M⁻¹

SMILES: N=C(N)NCCC[C@H](N)C(=O)O [L-arginine]
Association constant, α-Cyclodextrin [3]: 21 ± 2 | Association constant, β-Cyclodextrin [3]: 100 ± 5 | Association constant, γ-Cyclodextrin [3]: 9 ± 2

SMILES: O=C(O)c1cccnc1 [Nicotinic acid]
Association constant, α-Cyclodextrin [3]: 17 ± 2 | Association constant, β-Cyclodextrin [3]: 37 ± 3 | Association constant, γ-Cyclodextrin [3]: 10 ± 2

SMILES: Cc1ncc(C[n+]2csc(CCO)c2C)c(N)n1 [Thiamine HCl]
Association constant, α-Cyclodextrin [3]: 20 ± 2 | Association constant, β-Cyclodextrin [3]: 73 ± 3 | Association constant, γ-Cyclodextrin [3]: 8 ± 1

SMILES: CN(CC(=O)O)C(=N)N [creatine]
intelligence ([7]; diet supplementation, compared with placebo): significantly increased intelligence | cognitive ability ([7]; elderly): improved cognitive ability

SMILES: CC(=O)C(C)=O [diacetyl]
Association constant K, α-Cyclodextrin [3]: 28 M⁻¹ | Association constant K, β-Cyclodextrin [3]: 43 M⁻¹ | Association constant K, γ-Cyclodextrin [3]: 58 M⁻¹

SMILES: CCCCC(=O)OCC [ethyl valerate]
Calculated Binding Constants, complex formed with alpha-cyclodextrin [2]: 46 M⁻¹ | Calculated Binding Constants, complex formed with beta-cyclodextrin [2]: 80 M⁻¹

SMILES: CC(=O)OCCC(C)C [isoamyl acetate]
Association constant K, α-Cyclodextrin [3]: 729 M⁻¹ | Association constant K, β-Cyclodextrin [3]: 382 M⁻¹ | Association constant K, γ-Cyclodextrin [3]: 32 M⁻¹

SMILES: NCCS(=O)(=O)O [taurine]
secretion of apolipoprotein and lipids (HepG2 cells): reduce the secretion of apolipoprotein 8100 and lipids

Further lines, with some results ahead:

Calculated Binding Constants, complex formed with alpha-cyclodextrin [2]: 85 M⁻¹ | Calculated Binding Constants, complex formed with beta-cyclodextrin [2]: 40 M⁻¹
SMILES: CCCCCOC(C)=O [Amyl acetate]

Calculated Binding Constants, complex formed with alpha-cyclodextrin [2]: 60 M⁻¹ | Calculated Binding Constants, complex formed with beta-cyclodextrin [2]: 100 M⁻¹
SMILES: CCOC(C)=O [Ethyl acetate]
Association constant K, α-Cyclodextrin [3]: 37 M⁻¹ | Association constant K, β-Cyclodextrin [3]: 10 M⁻¹ | Association constant K, γ-Cyclodextrin [3]: 9 M⁻¹

apparent binding constant [4]: 80 to 105 M⁻¹
SMILES: CC(C)(C)NO [N-tert-butyl-hydroxylamine]

Calculated Binding Constants, complex formed with alpha-cyclodextrin [2]: 45 M⁻¹ | Calculated Binding Constants, complex formed with beta-cyclodextrin [2]: 34 M⁻¹
SMILES: C=CCOC(=O)CCC [allyl butyrate]

particle size of cyclodextrin particles ([5]; 2% w/v in carbonated water): < 500 nm | particle size of the majority of cyclodextrin particles ([5]; 2% w/v in non-carbonated tap water): ~1,000 nm | share of the cyclodextrin/palmitic acid complex in the precipitated complex [6]: about 78%
SMILES: OC[C@H]1O[C@@H]2O[C@H]3[C@H](O)[C@@H](O)[C@@H](O[C@H]4[C@H](O)[C@@H](O)[C@@H](O[C@H]5[C@H](O)[C@@H](O)[C@@H](O[C@H]6[C@H](O)[C@@H](O)[C@@H](O[C@H]7[C@H](O)[C@@H](O)[C@@H](O[C@H]1[C@H](O)[C@H]2O)O[C@@H]7CO)O[C@@H]6CO)O[C@@H]5CO)O[C@@H]4CO)O[C@@H]3CO [alpha-cyclodextrin]

Calculated Binding Constants, complex formed with alpha-cyclodextrin [2]: 67 M⁻¹ | Calculated Binding Constants, complex formed with beta-cyclodextrin [2]: 45 M⁻¹
SMILES: CCCCCOC(=O)CCCC [amyl valerate]

Calculated Binding Constants, complex formed with alpha-cyclodextrin [2]: 95 M⁻¹ | Calculated Binding Constants, complex formed with beta-cyclodextrin [2]: 110 M⁻¹
SMILES: CCCCOC(=O)CC(C)C [butyl isovalerate]

share of the cyclodextrin/palmitic acid complex in the precipitated complex [6]: undetectable amounts
SMILES: OC[C@H]1O[C@@H]2O[C@H]3[C@H](O)[C@@H](O)[C@@H](O[C@H]4[C@H](O)[C@@H](O)[C@@H](O[C@H]5[C@H](O)[C@@H](O)[C@@H](O[C@H]6[C@H](O)[C@@H](O)[C@@H](O[C@H]7[C@H](O)[C@@H](O)[C@@H](O[C@H]8[C@H](O)[C@@H](O)[C@@H](O[C@H]9[C@H](O)[C@@H](O)[C@@H](O[C@H]1[C@H](O)[C@H]2O)O[C@@H]9CO)O[C@@H]8CO)O[C@@H]7CO)O[C@@H]6CO)O[C@@H]5CO)O[C@@H]4CO)O[C@@H]3CO [gamma-cyclodextrin]

Calculated Binding Constants, complex formed with alpha-cyclodextrin [2]: 70 M⁻¹ | Calculated Binding Constants, complex formed with beta-cyclodextrin [2]: 98 M⁻¹
SMILES: Cc1occc(=O)c1O [maltol]
